Source: PubChem BioAssay AID230 (DTP/NCI, 2004)
“And” between values parts separate entries of the source, which are not always exact repeats. Identical values can stand only once. Toxic doses and inconclusive results are not listed.

System: C3H/He mice, Gardner lymphosarcoma 6C3HED ip, survival T/C
Assay: NCI In Vivo Anticancer Drug Screen. Data for tumor model Lymphosarcoma Gardner 6C3HED (intraperitoneal) in C3H/He mice
Settings: higher = longer survival
Experimental: The antitumor activity of compounds was measured in mice bearing transplantable tumors. Survival or tumor size were measured and the results are expressed as the measurement made in the treated group (T) divided by the measurement made in the vehicle treated control group (C). The tumor model used in this assay is Lymphosarcoma Gardner 6C3HED (intraperitoneal) in C3H/He mice

[1] = endpoint: survival time, mean or median, dose: 12.5 mg/kg/injection, schedule: Q01DX010 (ip), vehicle: saline
[2] = endpoint: survival time, mean or median, dose: 50.0 mg/kg/injection, schedule: Q01DX010 (ip), vehicle: saline
[3] = endpoint: survival time, mean or median, dose: 125.0 mg/kg/injection, schedule: Q01DX010 (ip), vehicle: saline
[4] = endpoint: survival time, mean or median, dose: 25.0 mg/kg/injection, schedule: Q01DX010 (ip), vehicle: saline
[5] = endpoint: survival time, mean or median, dose: 100.0 mg/kg/injection, schedule: Q01DX010 (ip), vehicle: saline
[6] = endpoint: survival time, mean or median, dose: 2.5 mg/kg/injection, schedule: Q01DX010 (ip), vehicle: saline
[7] = endpoint: survival time, mean or median, dose: 5.0 mg/kg/injection, schedule: Q01DX010 (ip), vehicle: saline
[8] = endpoint: survival time, mean or median, dose: 0.13 mg/kg/injection, schedule: Q01DX010 (ip), vehicle: saline
[9] = endpoint: survival time, mean or median, dose: 0.25 mg/kg/injection, schedule: Q01DX010 (ip), vehicle: saline
[10] = endpoint: survival time, mean or median, dose: 0.5 mg/kg/injection, schedule: Q01DX010 (ip), vehicle: saline

CC(C)CC(NC(=O)C(O)C(N)Cc1ccccc1)C(=O)O (configuration not stated)
T/C (endpoint: median survival time, dose: 2.5 mg/kg/injection, schedule: Q01DX005 (oral), vehicle: saline): 94 % of control
T/C (endpoint: median survival time, dose: 5.0 mg/kg/injection, schedule: Q01DX005 (oral), vehicle: saline): 95 % of control
T/C (endpoint: median survival time, dose: 10.0 mg/kg/injection, schedule: Q01DX005 (oral), vehicle: saline): 95 % of control

O=P1(N(CCCl)CCCl)NCCCO1 (configuration not stated)
T/C (endpoint: median survival time, dose: 12.5 mg/kg/injection, schedule: Q01DX007 (ip), vehicle: saline): 116 % of control
T/C (endpoint: median survival time, dose: 20.0 mg/kg/injection, schedule: Q01DX003 (ip), vehicle: saline): 163 % of control
T/C (endpoint: median survival time, dose: 25.0 mg/kg/injection, schedule: Q01DX007 (ip), vehicle: saline): 116 % of control
T/C (endpoint: median survival time, dose: 40.0 mg/kg/injection, schedule: Q01DX003 (ip), vehicle: saline): 209 % of control and 724 % of control
T/C (endpoint: median survival time, dose: 80.0 mg/kg/injection, schedule: Q01DX003 (ip), vehicle: saline): 190 % of control and 722 % of control
T/C (endpoint: survival time, mean or median, dose: 6.25 mg/kg/injection, schedule: Q01DX010 (ip), vehicle: saline): 100 % of control
T/C [1]: 115 % of control
T/C [2]: 115 % of control

[N-]=[N+]=CC(=O)CCC(N)C(=O)O (configuration not stated)
T/C (endpoint: survival time, mean or median, dose: 0.03 mg/kg/injection, schedule: Q01DX010 (ip), vehicle: saline): 100 % of control and 105 % of control
T/C (endpoint: survival time, mean or median, dose: 0.05 mg/kg/injection, schedule: Q01DX010 (ip), vehicle: saline): 100 % of control and 118 % of control
T/C (endpoint: survival time, mean or median, dose: 0.1 mg/kg/injection, schedule: Q01DX010 (ip), vehicle: saline): 118 % of control and 120 % of control

O=c1[nH]cnc2c1ncn2C1OC(CO)C(O)C1O (configuration not stated)
T/C (endpoint: median survival time, dose: 12.5 mg/kg/injection, schedule: Q01DX003 (ip), vehicle: saline): 90 % of control
T/C (endpoint: median survival time, dose: 12.5 mg/kg/injection, schedule: Q12HX006 (ip), vehicle: saline): 101 % of control
T/C (endpoint: median survival time, dose: 25.0 mg/kg/injection, schedule: Q01DX003 (ip), vehicle: saline): 95 % of control
T/C (endpoint: median survival time, dose: 25.0 mg/kg/injection, schedule: Q12HX006 (ip), vehicle: saline): 104 % of control
T/C (endpoint: median survival time, dose: 50.0 mg/kg/injection, schedule: Q01DX003 (ip), vehicle: saline): 100 % of control
T/C (endpoint: median survival time, dose: 50.0 mg/kg/injection, schedule: Q12HX006 (ip), vehicle: saline): 106 % of control

CN(C)[C@@H]1C(=O)C(C(N)=O)=C(O)[C@@]2(O)C(=O)C3=C(O)c4c(O)cccc4C[C@H]3C[C@@H]12
T/C (endpoint: survival time, mean or median, dose: 3.75 mg/kg/injection, schedule: Q01DX010 (ip), vehicle: saline): 93 % of control
T/C (endpoint: survival time, mean or median, dose: 7.5 mg/kg/injection, schedule: Q01DX010 (ip), vehicle: saline): 90 % of control
T/C (endpoint: survival time, mean or median, dose: 15.0 mg/kg/injection, schedule: Q01DX010 (ip), vehicle: saline): 90 % of control

CCC(=O)O[C@H]1CC[C@H]2[C@@H]3CCC4=CC(=O)CC[C@]4(C)[C@H]3CC[C@]12C
T/C (endpoint: survival time, mean or median, dose: 62.5 mg/kg/injection, schedule: Q01DX010 (sc), vehicle: steriod suspending solution): 90 % of control
T/C (endpoint: survival time, mean or median, dose: 125.0 mg/kg/injection, schedule: Q01DX010 (sc), vehicle: steriod suspending solution): 90 % of control
T/C (endpoint: survival time, mean or median, dose: 250.0 mg/kg/injection, schedule: Q01DX010 (sc), vehicle: steriod suspending solution): 96 % of control
T/C (endpoint: survival time, mean or median, dose: 500.0 mg/kg/injection, schedule: Q01DX010 (sc), vehicle: steriod suspending solution): 100 % of control

CC(CCC(C)OS(C)(=O)=O)OS(C)(=O)=O (configuration not stated)
T/C (endpoint: survival time, mean or median, dose: 4.0 mg/kg/injection, schedule: Q01DX010 (ip), vehicle: saline): 86 % of control
T/C (endpoint: survival time, mean or median, dose: 8.0 mg/kg/injection, schedule: Q01DX010 (ip), vehicle: saline): 100 % of control

O=[n+]1c2c(n([O-])c3ccccc31)-c1cccc3cccc-2c13
T/C (endpoint: survival time, mean or median, dose: 3.13 mg/kg/injection, schedule: Q01DX010 (ip), vehicle: saline): 86 % of control

CCN(CC)C(=S)S
T/C [3]: 93 % of control
T/C (endpoint: survival time, mean or median, dose: 500.0 mg/kg/injection, schedule: Q01DX010 (ip), vehicle: saline): 96 % of control

CC(=O)O[C@]1(C(C)=O)CC[C@H]2[C@@H]3C[C@H](C)C4=CC(=O)C=C[C@]4(C)[C@@]3(F)[C@@H](O)C[C@@]21C
T/C (endpoint: survival time, mean or median, dose: 6.25 mg/kg/injection, schedule: Q01DX010 (sc), vehicle: steriod suspending solution): 100 % of control
T/C (endpoint: survival time, mean or median, dose: 12.5 mg/kg/injection, schedule: Q01DX010 (sc), vehicle: steriod suspending solution): 96 % of control
T/C (endpoint: survival time, mean or median, dose: 25.0 mg/kg/injection, schedule: Q01DX010 (sc), vehicle: steriod suspending solution): 92 % of control
T/C (endpoint: survival time, mean or median, dose: 50.0 mg/kg/injection, schedule: Q01DX010 (sc), vehicle: steriod suspending solution): 92 % of control

COc1cc(-c2ccc(Nc3ccccc3C(=O)O)c(OC)c2)ccc1Nc1ccccc1C(=O)O
T/C [1]: 117 % of control
T/C [4]: 107 % of control and 117 % of control
T/C [2]: 117 % of control and 118 % of control
T/C [5]: 96 % of control

Nc1nc(N)c2nc(CNc3ccc(C(=O)NC(CCC(=O)O)C(=O)O)cc3)cnc2n1 (configuration not stated)
T/C (endpoint: survival time, mean or median, dose: 0.03 mg/kg/injection, schedule: Q01DX010 (ip), vehicle: other): 95 % of control and 100 % of control
T/C (endpoint: survival time, mean or median, dose: 0.05 mg/kg/injection, schedule: Q01DX010 (ip), vehicle: other): 100 % of control and 110 % of control
T/C (endpoint: survival time, mean or median, dose: 0.1 mg/kg/injection, schedule: Q01DX010 (ip), vehicle: other): 100 % of control and 110 % of control

CC1CCOS(=O)O1 (configuration not stated)
T/C [6]: 93 % of control
T/C [7]: 93 % of control
T/C (endpoint: survival time, mean or median, dose: 10.0 mg/kg/injection, schedule: Q01DX010 (ip), vehicle: saline): 92 % of control and 103 % of control
T/C (endpoint: survival time, mean or median, dose: 20.0 mg/kg/injection, schedule: Q01DX010 (ip), vehicle: saline): 89 % of control and 96 % of control

CC(=O)NC1=C(N2CC2)C(=O)C(NC(C)=O)=C(N2CC2)C1=O
T/C [8]: 117 % of control
T/C [9]: 92 % of control
T/C [10]: 103 % of control
T/C (endpoint: survival time, mean or median, dose: 63.0 micrograms/kg/injection, schedule: Q01DX010 (ip), vehicle: saline): 170 % of control
T/C (endpoint: survival time, mean or median, dose: 125.0 micrograms/kg/injection, schedule: Q01DX010 (ip), vehicle: saline): 204 % of control
T/C (endpoint: survival time, mean or median, dose: 250.0 micrograms/kg/injection, schedule: Q01DX010 (ip), vehicle: saline): 114 % of control

Nc1nc(=O)n(C2CC(O)C(CO)O2)cc1Br (configuration not stated)
T/C [4]: 107 % of control
T/C [2]: 107 % of control
T/C [5]: 96 % of control and 107 % of control
T/C (endpoint: survival time, mean or median, dose: 200.0 mg/kg/injection, schedule: Q01DX010 (ip), vehicle: saline): 100 % of control and 107 % of control

O=c1[nH]c(=O)n(C2CC(O)C(CO)O2)cc1C(F)(F)F (configuration not stated)
T/C (endpoint: survival time, mean or median, dose: 31.3 mg/kg/injection, schedule: Q01DX010 (ip), vehicle: saline): 119 % of control
T/C (endpoint: survival time, mean or median, dose: 62.5 mg/kg/injection, schedule: Q01DX010 (ip), vehicle: saline): 119 % of control
T/C [3]: 100 % of control

Nc1nc([Se])c2ncn(C3OC(CO)C(O)C3O)c2n1 (configuration not stated)
T/C (endpoint: median survival time, dose: 1.0 mg/kg/injection, schedule: Q01DX009 (ip), vehicle: saline): 98 % of control
T/C (endpoint: median survival time, dose: 2.0 mg/kg/injection, schedule: Q01DX009 (ip), vehicle: saline): 103 % of control
T/C (endpoint: median survival time, dose: 4.0 mg/kg/injection, schedule: Q01DX009 (ip), vehicle: saline): 114 % of control
T/C (endpoint: median survival time, dose: 8.0 mg/kg/injection, schedule: Q01DX009 (ip), vehicle: saline): 107 % of control
T/C (endpoint: median survival time, dose: 16.0 mg/kg/injection, schedule: Q01DX009 (ip), vehicle: saline): 99 % of control

N#[N+]c1cnc([O-])[nH]c1=O
T/C (endpoint: survival time, mean or median, dose: 1.25 mg/kg/injection, schedule: Q01DX010 (ip), vehicle: saline): 123 % of control
T/C [6]: 150 % of control
T/C [7]: 106 % of control

COc1cccc2c1C(=O)c1c(O)c3c(c(O)c1C2=O)C[C@@](O)(C(C)=O)C[C@@H]3OC1CC(N)C(O)C(C)O1 (some centres not stated)
T/C [8]: 92 % of control
T/C [9]: 111 % of control
T/C [10]: 119 % of control
T/C (endpoint: survival time, mean or median, dose: 1.0 mg/kg/injection, schedule: Q01DX010 (ip), vehicle: saline): 300 % of control
T/C (endpoint: survival time, mean or median, dose: 2.0 mg/kg/injection, schedule: Q01DX010 (ip), vehicle: saline): 173 % of control

Nc1nc2n[nH]nc2c(=O)[nH]1
T/C (endpoint: survival time, mean or median, dose: 25.0 mg/kg/injection, schedule: Q01DX010 (ip), vehicle: alkali diluted with saline): 109 % of control
T/C (endpoint: survival time, mean or median, dose: 50.0 mg/kg/injection, schedule: Q01DX010 (ip), vehicle: alkali diluted with saline): 115 % of control and 118 % of control
T/C (endpoint: survival time, mean or median, dose: 100.0 mg/kg/injection, schedule: Q01DX010 (ip), vehicle: alkali diluted with saline): 120 % of control
T/C (endpoint: survival time, mean or median, dose: 200.0 mg/kg/injection, schedule: Q01DX010 (ip), vehicle: alkali diluted with saline): 100 % of control
